# Measured values: ChEMBL document CHEMBL1212701, “Identification of small molecules rescuing fragile X syndrome phenotypes in Drosophila” (2008)
# Activity calls are given as the source filed them. The calls are words filed in the database; no cut-off is given here.
# What was measured:
# [1] = system: Drosophila; experiment: Protection against fragile X syndrome phenotypes in Fmr1 null mutant Drosophila Fmr1'3/TM6C assessed as embryo viability at 40 uM at 25 degC by flow cytometry relative to untreated homozygous embryos; assay type: functional
# [2] = system: Drosophila; experiment: Protection against fragile X syndrome phenotypes in laboratory prepared food feeded Fmr1 null mutant Drosophila Fmr1'3/TM6C assessed as homozygous Fmr1-/- embryo viability at 5 uM at 25 degC by flow cytometry relative to untreated homozygous embryos fed with only laboratory prepared food; assay type: functional
# [3] = system: Drosophila; experiment: Suppression of Futsch protein overexpression in head lysates of laboratory prepared food feeded Fmr1 null mutant Drosophila Fmr1'3/TM6C fragile X syndrome model at 40 uM by Western blot; assay type: functional, organism-based
# [4] = system: Drosophila; experiment: Suppression of Futsch protein overexpression in head lysates of laboratory prepared food feeded Fmr1 null mutant Drosophila Fmr1'3/TM6C fragile X syndrome model at 40 uM in presence of Scopolamine by Western blot; assay type: functional, organism-based
# [5] = system: Drosophila; experiment: Suppression of beta-lobe midline crossing deffect in mushroom bodies of laboratory prepared food feeded Fmr1 null mutant Drosophila Fmr1'3/TM6C fragile X syndrome model at by Fas2 staining based confocal microscopy; assay type: functional
# [6] = system: Drosophila; experiment: Protection against fragile X syndrome phenotypes in laboratory prepared food feeded Fmr1 null mutant Drosophila Fmr1'3/TM6C assessed as homozygous Fmr1-/- embryo viability at 40 uM at 25 degC by flow cytometry relative to untreated homozygous embryos fed with only laboratory prepared food; assay type: functional
# [7] = system: Drosophila; experiment: Cytoprotection against glutamate-induced toxicity in laboratory prepared food feeded Fmr1 null mutant Drosophila Fmr1'3/TM6C fragile X syndrome model assessed as genetic segregation ratio at 40 uM by flow cytometry relative to untreated embryos; assay type: functional
# [8] = system: Drosophila; experiment: Cytoprotection against glutamate-induced toxicity in laboratory prepared food feeded Fmr1 null mutant Drosophila Fmr1'3/TM6C fragile X syndrome model assessed as embryo viability at 40 uM by flow cytometry relative to untreated embryos; assay type: functional, organism-based
# [9] = system: Drosophila; experiment: Cytoprotection against glutamate-induced toxicity in laboratory prepared food feeded Fmr1 null mutant Drosophila Fmr1'3/TM6C fragile X syndrome model assessed as embryo viability at 40 uM in presence of GABAB receptor antagonist CGP-54626 by flow cytometry relative to untreated embryos; assay type: functional
# [10] = system: Drosophila; experiment: Suppression of glutamate-induced Futsch protein overexpression in head lysates of laboratory prepared food feeded Fmr1 null mutant Drosophila Fmr1'3/TM6C fragile X syndrome model at 40 uM by Western blot; assay type: functional, organism-based
# [11] = system: Drosophila; experiment: Suppression of glutamate-induced beta-lobe midline crossing deffect in mushroom bodies of laboratory prepared food feeded Fmr1 null mutant Drosophila Fmr1'3/TM6C fragile X syndrome model at 40 uM by Fas2 staining based confocal microscopy; assay type: functional
# [12] = system: Drosophila; experiment: Suppression of glutamate-induced beta-lobe midline crossing deffect in mushroom bodies of laboratory prepared food feeded Fmr1 null mutant Drosophila Fmr1'3/TM6C fragile X syndrome model assessed as incidence of severe deffects at 40 uM by Fas2 staining based confocal microscopy; assay type: functional
# [13] = system: Drosophila; experiment: Suppression of glutamate-induced courtship behavior deffect in laboratory prepared food feeded male Fmr1 null mutant Drosophila Fmr1'3/TM6C fragile X syndrome model assessed as courtship behavior towards female flies at 40 uM for 10 mins by courtship index assay; assay type: functional, organism-based
# [14] = system: Drosophila; experiment: Protection against fragile X syndrome phenotypes in laboratory prepared food feeded Fmr1 null mutant Drosophila Fmr1'3/TM6C assessed as homozygous Fmr1-/- embryo viability at 20 uM at 25 degC by flow cytometry relative to untreated homozygous embryos fed with only laboratory prepared food; assay type: functional
# [15] = system: Drosophila; experiment: Cytoprotection against glutamate-induced toxicity in laboratory prepared food feeded Fmr1 null mutant Drosophila Fmr1'3/TM6C fragile X syndrome model assessed as embryo viability at 40 uM in presence of 40 uM GABAB receptor antagonist CGP-54626 by flow cytometry relative to untreated embryos; assay type: functional, organism-based
# [16] = system: Drosophila; experiment: Protection against fragile X syndrome phenotypes in laboratory prepared food feeded Fmr1 null mutant Drosophila Fmr1'3/TM6C assessed as homozygous Fmr1-/- embryo viability at 10 uM at 25 degC by flow cytometry relative to untreated homozygous embryos fed with only laboratory prepared food; assay type: functional
# [17] = system: Drosophila; experiment: Cytoprotection against glutamate-induced toxicity in laboratory prepared food feeded Fmr1 null mutant Drosophila Fmr1'3/TM6C fragile X syndrome model assessed as embryo viability at 80 uM by flow cytometry relative to untreated embryos; assay type: functional, organism-based
# [18] = system: Drosophila; experiment: Suppression of glutamate-induced beta-lobe midline crossing deffect in mushroom bodies of laboratory prepared food feeded Fmr1 null mutant Drosophila Fmr1'3/TM6C fragile X syndrome model at 80 uM by Fas2 staining based confocal microscopy; assay type: functional, organism-based
# [19] = system: Drosophila; experiment: Suppression of glutamate-induced courtship behavior deffect in laboratory prepared food feeded male Fmr1 null mutant Drosophila Fmr1'3/TM6C fragile X syndrome model assessed as courtship behavior towards female flies at 80 uM for 10 mins by courtship index assay; assay type: functional, organism-based
structure (smiles),measurement,setting,value
CC[C@@H]1C(=O)OC[C@@H]1Cc1cncn1C.O=[N+]([O-])O [PILOCARPINE NITRATE],Activity,[1],33%
same,Activity,[2],68.5%
same,Activity,[3],Active
same,Activity,[4],inactive
same,Activity,[5],69%
CN1CC(=O)NC1=N [CREATININE],Activity,[1],58%
same,Activity,[6],123.2%
same,Activity,[3],Active
same,Activity,[5],69%
NCCCC(=O)O [GAMMA-AMINOBUTYRIC ACID],Activity,[1],25%
same,Activity,[6],83.1%
same,Activity,[7],33%
same,Activity,[8],Active
same,Activity,[9],8%
same,Activity,[10],Active
same,Activity,[11],70%
same,Activity,[12],7%
same,Activity,[13],Active
Cl.NCCc1ccc(O)c(O)c1 [DOPAMINE HYDROCHLORIDE],Activity,[1],25%
Cl.NCC(=O)c1ccccc1 [PHENACYLAMINE HYDROCHLORIDE],Activity,[1],25%
Cl.Cl.NNCc1cccc(O)c1,Activity,[1],67%
CC(=O)N[C@@H](CS)C(=O)O [ACETYLCYSTEINE],Activity,[1],67%
C[C@@H](CO)NC(=O)[C@@H]1C=C2c3cccc4[nH]cc(c34)C[C@H]2N(C)C1.O=C(O)/C=C\C(=O)O [ERGONOVINE MALEATE],Activity,[1],33%
same,Activity,[14],69.85%
CCN(CC)CCOc1ccc(C(=C(Cl)c2ccccc2)c2ccccc2)cc1 [CLOMIPHENE],Activity,[1],25%
same,Activity,[2],54.96%
Cc1cc(O)cc(C)c1Cl [CHLOROXYLENOL],Activity,[1],42%
CN1[C@@H]2CC[C@H]1C[C@@H](OC(c1ccccc1)c1ccccc1N)C2 (stereo not given in full) [AMINOBENZTROPINE],Activity,[1],25%
same,Activity,[6],66.38%
same,Activity,[3],Active
same,Activity,[15],Active
O=C(O)C1CCCNC1 (stereo not given) [NIPECOTIC ACID],Activity,[1],58%
same,Activity,[6],84.2%
same,Activity,[3],Active
same,Activity,[5],69%
COC(=O)[C@H]1[C@H]2C[C@@H]3c4[nH]c5cc(OC)ccc5c4CCN3C[C@H]2C[C@@H](OC(=O)c2cc(OC)c(OC)c(OC)c2)[C@@H]1OC [RESERPINE],Activity,[1],25%
C/C=C(/C(=C/C)c1ccc(O)cc1)c1ccc(O)cc1 [DIENESTROL],Activity,[1],33%
same,Activity,[6],71.3%
C[C@H](NC[C@H](O)CP(=O)(O)CC1CCCCC1)c1ccc(Cl)c(Cl)c1,Activity,[8],inactive
O=c1cc(CO)occ1O [KOJIC ACID],Activity,[1],25%
same,Activity,[16],73.06%
Cc1cccc(C#Cc2ccccc2)n1,Activity,[16],61.6%
same,Activity,[17],Active
same,Activity,[18],Active
same,Activity,[19],Active
